Source: publication PMC9401491, “The Novel Nucleoside Analogue ProTide NUC-7738 Overcomes Cancer Resistance Mechanisms In Vitro and in a First-In-Human Phase I Clinical Trial” (Clinical Cancer Research, 2021)
Read-outs that look alike come from different tables or passages of the source.

Key:
[1] = Beagle dog 4-week toxicology and toxicokinetics
[2] = set-up: method as in PMID 20302371; conditions: cited from earlier work
HAP1 cells [3] = test: HAP1 viability with ADA, hENT1 or ADK inhibitors; type: cell-based, human; conditions: HAP1, EHNA, NBTI, A134974
Experimental: (§1) Cells (10^4) were seeded into 96-well plates and then treated with NUC-7738 (lot 5132/E00393/119) or 3′-dA (cordycepin, catalog no. C3394, lot 067M4182, Sigma) for 48 hours. One and a half milligrams per milliliter MTT (catalog no. M6494, Invitrogen) in a 1:1 ratio was added to cell culture media. After a 2-hour incubation at 37°C, media was removed and 70 μl of isopropanol was added. Optical densities at 570 nm were measured using POLARstar Omega plate reader. Readouts were normalized and IC50 values were calculated using a nonlinear regression model in Graphpad prism (v8.3.0). Each biological replicate (at least 3) was performed in 4 technical replicates to calculate the average IC50 value. To measure apoptosis, the Guava NexinReagent (Luminex Corp.) was used following manufacturer's instructions. Fluorescence staining was measured with an automated 96-well Guava easyCyte Flow Cytometer (Luminex Corp.).
To assess whether NUC-7738 was resistant to ADA and could bypass ADK and hENT1 (SLC29A1), cell viability was measured after treatment with their specific and corresponding protein inhibitors: erythro-9-(2-Hydroxy-3-nonyl) adenine hydrochloride (EHNA), A134974, and S-(4-nitrobenzyl)-6-thioinosine (NBTI), respectively ([16, 17, 34, 35]).

HAP1 cells [4] = test: MTT cell viability, HAP1 cells; type: cell-based; conditions: Homo sapiens
Experimental: as §1

CAKI-1 = test: MTT cell viability, CAKI-1; type: cell-based; conditions: Homo sapiens; CAKI-1, 48 hours; mean (±SEM); read-out: IC50
Experimental: as §1

Tera-1 = test: MTT cell viability, Tera-1; type: cell-based; conditions: Tera-1, 48 hours; mean (±SEM); read-out: IC50
Experimental: as §1

cancer cell lines = test: IC50 across a wide set of cancer cell lines; type: cell-based; conditions: mean across a wide set of cancer cell lines; read-out: mean IC50
Experimental: as §1

SK-OV3 = test: MTT cell viability, SK-OV3; type: cell-based; conditions: Homo sapiens, SK-OV-3; SK-OV3, 48 hours; 2 biological replicates; read-out: IC50
Experimental: as §1

[5] = tested on: NUDT2 knockout HAP1 cells; test: Sensitivity of NUDT2 CRISPR/Cas9 knockout HAP1 cells; type: cell-based, human; conditions: HAP1 NUDT2 knockout vs wildtype
Experimental: Cells were transfected with stealth siRNA (catalog no. HSS104782, catalog no. HSS104784, catalog no. HSS179235; ThermoFisher) targeting HINT-1 using Lipofectamine RNAiMAX (Invitrogen) following the manufacturer's protocol. At 48 hours posttransfection, cells were treated and cell viability was measured 96 hours posttransfection as described above. Samples for Western blot analysis were harvested 48 hours posttransfection. For gene-depletion experiments, approximately 4 × 10^5 HAP1 cells were seeded per well in a 6-well plate and grown to approximately 50% confluency. After 24 hours, cells were transfected with lentiCRISPR v2 plasmid (GenScript) containing a guide RNA (gRNA) targeting gene of interest using Turbofectin (catalog no. TF81001, OriGene) according to manufacturer's instruction. The following sequences were used: HINT-1 CRISPR gRNA 2 ([…]) and NUDT2 CRISPR gRNA 2 ([…]). At 24 hours posttransfection, positively transfected cells were selected using […] puromycin for 72 hours. After selection, surviving colonies were expanded and used for downstream analysis. For clonal selection, clones were selected using limited dilution and expanded into a 6-well plate for Western blot screening.

AGS = test: MTT cell viability, AGS; type: cell-based; conditions: Homo sapiens, 48 hours, mean (±SEM), read-out: IC50
Experimental: as §1

[6] = tested on: Gastric or cervical cancer cells; test: Apoptosis by cleaved PARP Western blot; type: cell-based; conditions: 50 and 100 μmol/L, 24 hours
Experimental: as §1
Cells were harvested and lyzed using RIPA lysis and extraction buffer (Thermo Scientific) following manufacturer's protocol. Twenty to 30 μg of total protein lysates was loaded on Mini-PROTEAN TGX precast gels (Bio-Rad). Separated proteins were transferred to a polyvinylidene difluoride (PVDF) membrane using Trans-Blot Turbo Transfer System (Bio-Rad) followed by incubation with primary and horseradish peroxidase (HRP)–conjugated secondary antibodies [anti-mouse, catalog no. […]

NCI-786 = test: MTT cell viability, NCI-786; type: cell-based; conditions: NCI-786, 48 hours; mean (±SEM); read-out: IC50
Experimental: as §1

ACHN = test: MTT cell viability, ACHN; type: cell-based; conditions: Homo sapiens, 48 hours, mean (±SEM), read-out: IC50
Experimental: as §1

A498 = test: MTT cell viability, A498; type: cell-based; conditions: Homo sapiens; A498, 48 hours; mean (±SEM); read-out: IC50
Experimental: as §1

501MEL = test: MTT cell viability, 501MEL; type: cell-based; conditions: 501MEL, 48 hours; mean (±SEM); read-out: IC50
Experimental: as §1

UO-31 = test: MTT cell viability, UO-31; type: cell-based; conditions: Homo sapiens; UO-31, 48 hours; mean (±SEM); read-out: IC50
Experimental: as §1

[7] = NuTide:701 first-in-human phase I study; type: in vivo; conditions: human, in vivo
Experimental: A Safety Study of NUC-7738 in Patients with Advanced Solid Tumours or Lymphoma, ClinicalTrials number: NCT03829254. Approved by Oxford C Ethics Committee ref 18/SC/0628.
This study is currently ongoing at three centers in the United Kingdom: Edinburgh, Newcastle, and Oxford. As of June 1, 2021, 28 patients with advanced cancers have been enrolled and received escalating doses of 14–900 mg/m^2 (intravenous infusion from 30–120 minutes) once weekly until dose-limiting toxicity or disease progression occurs. Intrapatient dose escalation ensures those starting at lower dose levels of NUC-7738 are continuously moved to higher doses once safety has been established. The most common cancers to be included are immunotherapy-resistant melanoma (n = 8), colorectal cancer (n = 3), and gastric and lung cancer (n = 2 each). […] A posttreatment biopsy was taken from a patient with melanoma and compared with their archived specimen collected prior to enrolling in the clinical trial. […] Transcriptional profiling of the specimens using RNA-seq identified more than 1,069 genes which were at least 2-fold differentially expressed after treatment with NUC-7738 (Fig. 6C and Supplementary Fig. S6A–C).

[8] = all doses, both occasions and genders

With O=c1[nH]cnc2c1ncn2[C@@H]1O[C@H](CO)C[C@H]1O [3′-deoxyinosine] the “mean ratio metabolite/parent, AUC 0-t” value [1, 8] was 1.32, the “mean ratio metabolite/parent, Cmax” value [1, 8] was 0.42 and the Tmax ([1]; both, beagle, plasma, iv) was 15 min.

In the case of Nc1ncnc2c1ncn2[C@@H]1O[C@H](CO)C[C@H]1O [3′-dA, 3′-deoxyadenosine, reference compound], the half-life in plasma [2] is given as 1.6 min, the “potency upon inhibition of ADA, hENT1 or ADK” value (HAP1 cells [3]) is given as “dependent on ADA, hENT1, and ADK” and the IC50 (HAP1 cells [4]; HAP1, 48 hours, MTT, mean (±SEM) of 4 biological replicates, read-out: IC50) is given as 49.9 µM. The IC90 (HAP1 cells [4]; HAP1, 48 hours, MTT, mean (±SEM) of 4 biological replicates, read-out: IC90) was 151 µM, the IC50 (HAP1 cells [4]; HAP1, as stated in RNA-seq method, read-out: IC50 concentration used for RNA-seq) was 46 µM and the IC90 (HAP1 cells [4]; HAP1, as stated in RNA-seq method, read-out: IC90 concentration used for RNA-seq) was 375 µM. The IC50 (CAKI-1) was 291 µM, the IC50 (Tera-1) was 200 µM and the IC50 (cancer cell lines) was 138 µM. For the same compound, the IC50 (SK-OV3) was 360 µM, the “resistance after NUDT2 deletion” value [5] was “Specific resistance” and the IC50 (AGS) was 460 µM. For the same compound, the “apoptotic cell death, cleaved PARP-1” value [6] was “induced apoptotic cell death”, the IC50 (NCI-786) was 181 µM and the IC50 (ACHN) was 393 µM. The IC50 (A498) was 479 µM, the IC50 (501MEL) was 137 µM and the IC50 (UO-31) was 385 µM.

With Nc1ncnc2c1ncn2[C@@H]1O[C@H](COP(=O)(O)OP(=O)(O)OP(=O)(O)O)C[C@H]1O [3′-dATP, 3′-dA-5′-triphosphate] the intracellular half-life [7] was “approximately 50 h”.
